These results are taken from patent US20130288895A1, “METHODS AND COMPOSITIONS FOR WEED CONTROL” (priority 2011, published 2013).

One data set concerns A. palmeri (R-22). Briefly: Greenhouse test: 2,4-D, glyphosate and trigger polynucleotides. The format is in vivo. Conditions: RU Wmax 1.5 lb/A where included, 14 days after treatment.
Data set [1] deals with Amaranthus palmeri plants (glyphosate-resistant Palmer amaranth, “R-22”). Briefly: Topical trigger oligonucleotide bioassay with glyphosate on Amaranthus palmeri. Details: key: relative measure of activity, the tested oligonucleotide was either active, less active, or inactive in the bioassay; relative measure of activity, the tested oligonucleotide was either active, less active, or inactive in the bioassay; relative measure of activity, the tested oligonucleotide was either active, less active, or inactive in the bioassay. The format is in vivo.

Data set [2] deals with Corn plants transformed with the CP4 EPSPS gene. In words: CP4 EPSPS dsRNA triggers plus RoundUp Ultra on transgenic glyphosate tolerant corn. Conditions: trigger 210, 630, 1890 pmol; RoundUp Ultra 1.5 a.e. lb/acre two-three days later; FIG. 2.
Protocol: Corn and cotton plants that were transformed with the CP4 EPSPS gene and are resistant to glyphosate were planted in pots in a greenhouse along with negative isolines for each and grown to the first true leaf emergence stage then treated with a trigger solution containing 0.5% Silwet L77, 2% ammonium sulfate, 20 mM Na Phoshpate (pH 6.8) at different rates of trigger amount, 0 picomoles (pmol), 210 pmol, 630 pmol and 1890 pmol. For each replication (8-10 plants), two fully expanded cotyledons were treated by pipette with 50 microliters of trigger solution each, then sprayed two-three days later with 1.5 a.e.lb/acre) of RoundUp™ Ultra (glyphosate, Monsanto, St Louis, Mo.). The cotton and corn plants were scored for stunting and injury 7-16 days after spray treatment.
Where [3] appears, read: 5.2 triggers to A. palmeri EPSPS coding sequence, topical application with Silwet L-77, glyphosate, relative measure of activity.
[4] abbreviates: AS83 triggers to EPSPS promoter of glyphosate resistant A. palmeri, 3′/5′ deletions, mismatch mutations, relative measure of activity.
Where [5] appears, read: AS83 made as ssDNA, dsRNA, dsDNA, making Palmer R-22 plant sensitive to glyphosate.

With `CNC.O=C(O)COc1ccc(Cl)cc1Cl` [2,4-D, 2,4D amine (dimethylamine salt)], the entries for the “% Control (mean)” value in the data set on A. palmeri (R-22) (2,4-D 0.0625 lb/A) and with A. palmeri (R-22) (2,4-D 0.125 lb/A) were 60% and 80.8%, respectively.
In the case of “AATGCCAGATGTTGCTATGAC (AATGCCAGATGTTGCTATGAC; antisense; DNA, backbone and methylation of C not given here; 5.2-DNA-wt is double-stranded DNA) [Oligo 5.2-ssDNA-S, ssDNA 21-mer, sense]”, the Activity entry in data set [1] (setting [3]) is “less active”.
On the same count and under the same terms, in the case of ATA GCA ACA TCT GGC ATT [5.2-RNA-5′-18] it was “inactive”; in that of “C ATA GCA ACA TCT GGC ATT [5.2-RNA-5′-19]”, “less active”.
For the molecule “CTC TTT GTT TTT CTT CT (CTCTTTGTTTTTCTTCT; DNA, backbone and methylation of C not given here) [AS83-DNA-17-3′D, ssDNA 17-mer]”, the result in data set [1] (setting [4]) was inactive.
Still for that read-out and setting: under “CTC TTT GTT TTT CTT CTG (CTCTTTGTTTTTCTTCTG; DNA, backbone and methylation of C not given here) [AS83-DNA-18-3′D, ssDNA 18-mer]” stands “inactive”.
The same measure, in the same setting: under “CTC TTT GTT TTT CTT CTG C (CTCTTTGTTTTTCTTCTGC; DNA, backbone and methylation of C not given here) [AS83-DNA-19-3′D, ssDNA 19-mer]” stands “inactive”; under “CTCTTTGTTTTTCTTCTGCC (CTCTTTGTTTTTCTTCTGCC; DNA, backbone and methylation of C not given here) [AS83-DNA-20-3′D, ssDNA 20-mer]”, “active”.
On the same count and under the same terms, under “CTCTTTGTTTTTCTTCTGCCA (CTCTTTGTTTTTCTTCTGCCA; chemistry not given here) [AS83-DNA-21-3′D, ssDNA 21-mer]” stands “active”; under “CTCTTTGTTTTTCTTCTGCCAA (CTCTTTGTTTTTCTTCTGCCAA; chemistry not given here) [AS83-DNA-22-3′D, ssDNA 22-mer]”, “active”.
Consider “CTCTTTGTTTTTCTTCTGCCAAT (CTCTTTGTTTTTCTTCTGCCAAT; chemistry not given here) [AS83-DNA-23-3′D, ssDNA 23-mer]”, for which the result in data set [1] (setting [4]) was active.
Still for that read-out and setting: in the case of “CTCTTTGTTTTTCTTCTGCCAATT (CTCTTTGTTTTTCTTCTGCCAATT; chemistry not given here) [AS83-DNA-24-3′D, ssDNA 24-mer]” it was “active”.
With “CTCTTTGTTTTTCTTCTGCCAATTT (CTCTTTGTTTTTCTTCTGCCAATTT; chemistry not fully specified) [AS83-DNA-blunt, dsDNA 25-mer]”, the outcome in data set [1] (setting [5]) was active.
Turning to “CTCTTTGTTTTTCTTCTGCCAATTT (antisense CTCTTTGTTTTTCTTCTGCCAATTT; DNA, backbone and methylation of C not given here; listed as Amaranthus palmeri) [AS83-DNA-25-wt]”, the outcome in data set [1] (setting [4]) was active.
On the same count and under the same terms, under “CTCTTTGTTTTTCTTCTGCCAATTT-3′InvdT [AS83-DNA-3′InvdT]” stands “inactive”; under “CTCTTTGTTTTTCTTCTGCCAATTT-3′ddC [AS83-DNA-3′ddC]”, “inactive”.
The same measure, in the same setting: under “CTTTGTTTTTCTTCTGCCAATTT (CTTTGTTTTTCTTCTGCCAATTT; chemistry not given here) [AS83-DNA-23-5′D, ssDNA 23-mer]” stands “active”.
“CUCUUUGUUUUUCUUCUGCCAAUUU (CUCUUUGUUUUUCUUCUGCCAAUUU; RNA, backbone not given here; further chemistry not fully specified; listed as Amaranthus palmeri) [AS83-RNA-wt-]”: the result in data set [1] (setting [5]) was active.
Consider “GTCATAGCAACATCTGGCATT [5.2-DNA-wt] (GTCATAGCAACATCTGGCATT; DNA, backbone and methylation of C not given here; 5.2-DNA-wt is double-stranded DNA) [Oligo 5.2-DNA-wt, dsDNA 21-mer]”, for which the result in data set [1] (setting [3]) was active.
The same measure, in the same setting: under “GTCATAGCAACATCTGGCATT [5.2-asDNA/sRNA] (GTCATAGCAACATCTGGCATT; chemistry not fully specified) [DNA/RNA hybrid 21-mer]” stands “inactive”; under “GTCATAGCAACATCTGGCATT [5.2-sDNA/asRNA] (GTCATAGCAACATCTGGCATT; RNA, backbone and T or U not given here; hybrid: sense DNA strand with antisense RNA strand) [DNA/RNA hybrid 21-mer]”, “inactive”; under “GTCATAGCAACATCTGGCATT [5.2-ssDNA-AS] (GTCATAGCAACATCTGGCATT; antisense; DNA, backbone and methylation of C not given here; 5.2-DNA-wt is double-stranded DNA) [Oligo 5.2-ssDNA-AS, ssDNA 21-mer, antisense]”, “less active”.
The same measure, in the same setting: under “GTCATAGCAACATCTGGCATT [Oligo 5.2-RNA-wt]” stands “active”; under “GTCATAGCAACATCTGGCATT-3′IdT [5.2-RNA-3′IdT]”, “inactive”.
The same measure, in the same setting: under “GTCATAGCAACATCTGGCATT-3′ddC [5.2-RNA-3′ddC]” stands “inactive”; under “GTC Aat GCA ACA TCT GGC ATT [Oligo 5.2-RNA-M5]”, “active”.
As for “TC ATA GCA ACA TCT GGC ATT [5.2-RNA-5′-20]”, the result in data set [1] (setting [3]) was active.
In the case of “TCTTTGTTTTTCTTCTGCCAATTT (TCTTTGTTTTTCTTCTGCCAATTT; chemistry not given here) [AS83-DNA-24-5′D, ssDNA 24-mer]”, the outcome in data set [1] (setting [4]) was active.
The same measure, in the same setting: in the case of “TTG TTT TTC TTC TGC CA (TTGTTTTTCTTCTGCCA; DNA, backbone and methylation of C not given here) [AS83-DNA-17-5′D, ssDNA 17-mer]” it was “inactive”; in that of “TTG TTT TTC TTC TGC CAA (TTGTTTTTCTTCTGCCAA; DNA, backbone and methylation of C not given here) [AS83-DNA-18-5′D, ssDNA 18-mer]”, “inactive”.
Turning to “TTG TTT TTC TTC TGC CAA T (TTGTTTTTCTTCTGCCAAT; DNA, backbone and methylation of C not given here) [AS83-DNA-19-5′D, ssDNA 19-mer]”, the Activity entry in data set [1] (setting [4]) was “less active”.
Still for that read-out and setting: under “TTGTTTTTCTTCTGCCAATT (TTGTTTTTCTTCTGCCAATT; chemistry not given here) [AS83-DNA-20-5′D, ssDNA 20-mer]” stands “active”; under “TTGTTTTTCTTCTGCCAATTT (TTGTTTTTCTTCTGCCAATTT; chemistry not given here) [AS83-DNA-21-5′D, ssDNA 21-mer]”, “active”.
With “TTTGTTTTTCTTCTGCCAATTT (TTTGTTTTTCTTCTGCCAATTT; chemistry not given here) [AS83-DNA-22-5′D, ssDNA 22-mer]”, in data set [1] (setting [4]), the result was active.

B1: CP4-34: dsRNA trigger, 594-1043 of SEQ ID NO:1 (CP4 EPSPS), a 450 polynucleotide (nucleic acid, listed as Agrobacterium tumefaciens)
DNA: CGATCATACGGAAAAGATGCTGCAGGGCTTTGGCGCCAACCTTACCGTCGAGACGGATGCGGACGGCGTGCGCACCATCCGCCTGGAAGGCCGCGGCAAGCTCACCGGCCAAGTCATCGACGTGCCGGGCGACCCGTCCTCGACGGCCTTCCCGCTGGTTGCGGCCCTGCTTGTTCCGGGCTCCGACGTCACCATCCTCAACGTGCTGATGAACCCCACCCGCACCGGCCTCATCCTGACGCTGCAGGAAATGGGCGCCGACATCGAAGTCATCAACCCGCGCCTTGCCGGCGGCGAAGACGTGGCGGACCTGCGCGTTCGCTCCTCCACGCTGAAGGGCGTCACGGTGCCGGAAGACCGCGCGCCTTCGATGATCGACGAATATCCGATTCTCGCTGTCGCCGCCGCCTTCGCGGAAGGGGCGACCGTGATGAACGGTCTGGAAGAACT
modifications: dsRNA form
With B1, the “glyphosate injury of corn plants” value in data set [2] is recorded as “dead or damaged terminal leaves”.

B2: CP4-12: dsRNA trigger, 82-462 of SEQ ID NO:1 (CP4 EPSPS), a 381 polynucleotide (nucleic acid, listed as Agrobacterium tumefaciens)
DNA: ATCTCCCACCGGTCCTTCATGTTCGGCGGTCTCGCGAGCGGTGAAACGCGCATCACCGGCCTTCTGGAAGGCGAGGACGTCATCAATACGGGCAAGGCCATGCAGGCCATGGGCGCCAGGATCCGTAAGGAAGGCGACACCTGGATCATCGATGGCGTCGGCAATGGCGGCCTCCTGGCGCCTGAGGCGCCGCTCGATTTCGGCAATGCCGCCACGGGCTGCCGCCTGACCATGGGCCTCGTCGGGGTCTACGATTTCGACAGCACCTTCATCGGCGACGCCTCGCTCACAAAGCGCCCGATGGGCCGCGTGTTGAACCCGCTGCGCGAAATGGGCGTGCAGGTGAAATCGGAAGACGGTGACCGTCTTCCCGTTACCTTG
modifications: dsRNA form
In the case of B2, the “glyphosate injury of corn plants” value in data set [2] is given as “dead or damaged terminal leaves”.
